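Method: 48-hour compound exposure of cells in 96-well plates, five concentrations, linear interpolation of endpoints. Here, GI50 denotes the concentration required for 50% inhibition of growth. TGI marks complete inhibition of growth.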

TGI and GI50 data for ten molecules are collected here from PubChem BioAssay (NCI).

Test systems include HT29 colon; KM12 colon; SK-MEL-28 melanoma; NCI-H226 lung; OVCAR-5 ovarian; NCI-H460 lung; LOX IMVI melanoma; OVCAR-4 ovarian; SF-539 CNS; M14 melanoma; OVCAR-3 ovarian.
Common to all, as to assay: growth of human tumour cells (NCI), 48 h

Consider `Nc1nnc(N)n1NC(=O)C(=O)Nc1ccc([N+](=O)[O-])cc1`, for which the TGI in the assay on HT29 colon, in the assay with KM12 colon, with SK-MEL-28 melanoma, in the assay with NCI-H226 lung, in the assay with OVCAR-5 ovarian and in the assay with NCI-H460 lung was greater than 100 µM in each case. The TGI with LOX IMVI melanoma, with OVCAR-4 ovarian and in the assay on SF-539 CNS was greater than 100 µM in each case.

As to `Fc1ccc(-c2nnc3sc(COc4ccccc4Cl)nn23)cc1Cl`, the GI50 was 48.1 µM in the assay on HT29 colon; 77.1 µM with KM12 colon; 22.8 µM with NCI-H226 lung; 34.9 µM in the assay with M14 melanoma; 81 µM in the assay with OVCAR-5 ovarian; 16.5 µM with LOX IMVI melanoma. In addition, the GI50 with OVCAR-4 ovarian is 28.2 µM; in the assay on SF-539 CNS, 41.4 µM. The TGI in the assay with HT29 colon is greater than 100 µM; in the assay with KM12 colon it was greater than 100 µM; in the assay with NCI-H226 lung it was 57.1 µM; in the assay with M14 melanoma it was greater than 100 µM; in the assay on OVCAR-5 ovarian it was greater than 100 µM; with LOX IMVI melanoma it was 31.6 µM. Further, the results for the TGI with OVCAR-4 ovarian and in the assay on SF-539 CNS were 78.4 µM and greater than 100 µM, respectively.

For the molecule `NC(=O)Nc1cc(O)ccc1N=Nc1ccc(S(=O)(=O)Nc2ccccn2)cc1`, the TGI in the assay on HT29 colon, in the assay with KM12 colon, in the assay on OVCAR-3 ovarian, with SK-MEL-28 melanoma, in the assay with M14 melanoma and with OVCAR-5 ovarian was greater than 100 µM throughout. The TGI with NCI-H460 lung, in the assay with LOX IMVI melanoma, in the assay with OVCAR-4 ovarian and in the assay with SF-539 CNS was greater than 100 µM in each case.

For the molecule `Cc1cc(N(CCCCl)CCCCl)ccc1C=Nc1cccc(Cl)c1`, the TGI in the assay with HT29 colon worked out at 27.7 µM; with KM12 colon it was 26.3 µM; in the assay with OVCAR-3 ovarian it was 33.5 µM; with SK-MEL-28 melanoma, 41.5 µM; in the assay with NCI-H226 lung, 0.562 µM; with M14 melanoma, 60.5 µM. Moreover, the TGI in the assay on OVCAR-5 ovarian came to 12.6 µM; in the assay on NCI-H460 lung it was 22.6 µM; with LOX IMVI melanoma it was 26.7 µM; in the assay with OVCAR-4 ovarian, 26.4 µM.

With `CC[C@H](C)C1=C(O)[N@+]2([O-])Oc3ccc(-c4c(O)c(O)c(-c5ccc(OC(C)=O)cc5)c(OC(C)=O)c4OC(C)=O)cc3O[C@]2([C@@H](C)CC)C(=O)N1O`, the TGI in the assay on HT29 colon, in the assay on KM12 colon, in the assay on OVCAR-3 ovarian, in the assay with SK-MEL-28 melanoma, in the assay on M14 melanoma and in the assay with OVCAR-5 ovarian was greater than 50 µM throughout. The TGI with NCI-H460 lung is greater than 50 µM; in the assay with LOX IMVI melanoma, greater than 50 µM; with OVCAR-4 ovarian, 31.5 µM; with SF-539 CNS, greater than 50 µM.

For the molecule `COc1cc(C)c2c(=O)c3c(oc2c1)C(=O)c1c(O)c(OC)cc(O)c1C3=O`, the TGI in the assay on HT29 colon is greater than 50 µM; with KM12 colon it was 11.9 µM; in the assay with OVCAR-3 ovarian, 2.4 µM; in the assay on SK-MEL-28 melanoma it was 7.44 µM; in the assay on NCI-H226 lung, 0.524 µM; in the assay with OVCAR-5 ovarian, 5.36 µM. Besides, the TGI was found to be 3.97 µM with NCI-H460 lung, 1.24 µM in the assay on LOX IMVI melanoma, 4.28 µM with OVCAR-4 ovarian and 4.19 µM in the assay on SF-539 CNS.

For the molecule `COc1ccc(OC)c(C#Cc2ccc(OC)c(C(=O)NCCc3ccc(F)cc3)c2)c1`, the TGI in the assay with HT29 colon, with KM12 colon, in the assay on M14 melanoma, in the assay with OVCAR-5 ovarian, with NCI-H460 lung and with LOX IMVI melanoma was greater than 100 µM in each case. Moreover, the TGI in the assay with OVCAR-4 ovarian is greater than 100 µM.

`COc1c(Cl)cc(S(=O)O)cc1Cl`: the TGI in the assay on HT29 colon, with KM12 colon, with OVCAR-3 ovarian, in the assay on SK-MEL-28 melanoma, in the assay with M14 melanoma and in the assay on OVCAR-5 ovarian was greater than 100 µM in each case. In addition, the TGI in the assay with NCI-H460 lung, in the assay on LOX IMVI melanoma, in the assay with OVCAR-4 ovarian and with SF-539 CNS was greater than 100 µM in each case.

`CC1(O)CC23CC1CCC2(C)C12CCCC(C)(C(=O)O1)C2CC3O` (configuration not stated): the TGI in the assay on HT29 colon, with KM12 colon, in the assay on SK-MEL-28 melanoma, in the assay on NCI-H226 lung, in the assay on M14 melanoma and in the assay on OVCAR-5 ovarian was greater than 100 µM throughout. For the same molecule, the TGI in the assay with NCI-H460 lung, in the assay with LOX IMVI melanoma, with OVCAR-4 ovarian and with SF-539 CNS was greater than 100 µM throughout.

Turning to `O=C(Nc1nnc(-c2c(Cl)c(Cl)c(Cl)c(Cl)c2-c2nc3cc(C(=O)c4ccccc4)ccc3[nH]2)o1)c1ccccc1`, the TGI in the assay on HT29 colon was 63.6 µM; in the assay with KM12 colon, greater than 100 µM; with OVCAR-3 ovarian, 44.7 µM; in the assay with SK-MEL-28 melanoma, 45.4 µM; in the assay on NCI-H226 lung it was 35.5 µM; with M14 melanoma, 34.4 µM. For the same molecule, the TGI in the assay on OVCAR-5 ovarian came to 55.7 µM; in the assay with LOX IMVI melanoma it was 32 µM; in the assay on OVCAR-4 ovarian, 95.1 µM; in the assay with SF-539 CNS it was 23.7 µM.
